In US20070128217A1 (priority 2003, published 2007):

B1: SC03-012 (scFv)
scFv: AMAQVQLVQSGAEVKKPGASVKVSCKASGYTFTSYGISWVRQAPGQGLEWMGWISAYNGNTNYAQKLQGRVTMTTDTSTSTAYMELSSLRSDDTAVYYCARMFRKSSFDSWGQGTLVTVSRGGGGSGGGGSGGGGSSELTQDPAVSVALGQTVRITCQGDSLRSYYASWYQQKPGQAPVLVIYGKNNRPSGIPDRFSGSSSGNTASLTITGAQAEDEADYYCNSRDSSGNHVVFGGGTKLTVLGAAA

Key:
[1] = test system: antibodies in sera from SARS patients (sera 1a, 1b, 2, 6, 37, 62, London, SARS-yellow, SARS-green); format: binding, human; set-up: Binding of serum 6 to linear peptides of protein X1 of SARS-CoV Urbani / Binding of serum 37 to linear peptides of protein X1 of SARS-CoV Urbani / Binding of serum 6 to looped/cyclic peptide (PEPSCAN-ELISA) / Binding of serum 37 to looped/cyclic peptide (PEPSCAN-ELISA) / Binding of serum 37 to looped/cyclic peptides of protein X1 of SARS-CoV Urbani / Binding of serum 6 to linear peptides of protein X2 / Binding of serum 37 to linear peptides of protein X2 / Binding of serum 37 to looped/cyclic peptides of protein X2 of SARS-CoV Urbani / Binding of serum 6 to linear peptides of protein M of SARS-CoV Urbani / Binding of serum 37 to linear peptides of protein M of SARS-CoV Urbani / Binding of serum 6 to looped/cyclic peptides of protein M of SARS-CoV Urbani / Binding of serum 37 to looped/cyclic peptides of protein M of SARS-CoV Urbani / Binding of serum 6 to linear peptides of protein X3 of SARS-CoV Urbani / Binding of serum 37 to linear peptides of protein X3 of SARS-CoV Urbani / Binding of serum 37 to looped/cyclic peptides of protein X3 of SARS-CoV Urbani / Binding of serum 6 to linear peptides of protein X4 of SARS-CoV Urbani / Binding of serum 37 to linear peptides of protein X4 of SARS-CoV Urbani / Binding of serum 37 to looped/cyclic peptides of protein X4 of SARS-CoV Urbani / Binding of serum 6 to linear peptides of protein X5 of SARS-CoV Urbani / Binding of serum 37 to linear peptides of protein X5 of SARS-CoV Urbani / Binding of serum 37 to looped/cyclic peptides of protein X5 of SARS-CoV Urbani / Binding of serum 6 to linear peptides of protein N of SARS-CoV Urbani / Binding of serum 37 to linear peptides of protein N of SARS-CoV Urbani / Binding of serum 6 to linear peptide (PEPSCAN-ELISA) / Binding of serum 1a to looped/cyclic peptides of protein N of SARS-CoV Urbani / Binding of serum 1b to looped/cyclic peptides of protein N of SARS-CoV Urbani / Binding of serum 2 to looped/cyclic peptides of protein N of SARS-CoV Urbani / Binding of serum 6 to looped/cyclic peptides of protein N of SARS-CoV Urbani / Binding of serum 37 to looped/cyclic peptides of protein N of SARS-CoV Urbani / Binding of serum 62 to looped/cyclic peptides of protein N of SARS-CoV Urbani / Binding of serum London to looped/cyclic peptides of protein N of SARS-CoV Urbani / Binding of serum SARS-green to looped/cyclic peptides of protein N of SARS-CoV Urbani: unit not given here
[2] = test system: control sera (pooled serum of ten healthy LUMC hospital workers; commercial negative donor pooled serum from the Dutch bloodbank); format: binding, human; set-up: Binding of Control serum LUMC to linear peptides / Binding of Control serum Blood-bank to linear peptides / Binding of Control serum LUMC to looped peptides / Binding of Control Serum Blood-Bank to Looped peptides / Binding of Control serum LUMC to linear peptides of the protein M of SARS-CoV Urbani / Binding of Control serum Blood-bank to linear peptides of the protein M of SARS-CoV Urbani / Binding of Control serum LUMC to looped peptides of the protein M of SARS-CoV Urbani / Binding of Control Serum Blood-Bank to Looped peptides of the protein M of SARS-CoV Urbani: unit not given here
[3] = test system: rabbit serum obtained by immunizing a rabbit with the SARS-CoV strain Frankfurt 1; format: binding; set-up: Binding of a rabbit serum to linear peptides / Binding of a rabbit serum to looped peptides / Rabbit serum linear peptides / Rabbit serum looped peptides / Binding of a rabbit serum to linear peptides of protein N of SARS-CoV Urbani (Rabbit serum linear peptides) / Binding of a rabbit serum to looped/cyclic peptides of protein N of SARS-CoV Urbani (Rabbit serum looped peptides): unit not given here
[4] = test system: recombinant human anti-SARS-CoV antibody 03-018; format: binding; set-up: Binding of antibody 03-018 to linear peptides of the N protein of SARS-CoV Urbani / Binding of antibody 03-018 to looped/cyclic peptides of the N protein of SARS-CoV Urbani: unit not given here
[5] = biological target: SARS-CoV preparation (Frankfurt 1 strain) (SARS-CoV strain Frankfurt 1)

Molecule	Binding of serum 1a to linear peptides of protein N of SARS-CoV Urbani [1]	Binding of serum 1a to looped/cyclic peptides of protein N of SARS-CoV Urbani [1]	Binding of serum 1b to linear peptides of protein N of SARS-CoV Urbani [1]	Binding of serum 1b to looped/cyclic peptides of protein N of SARS-CoV Urbani [1]	Binding of serum 2 to linear peptides of protein N of SARS-CoV Urbani [1]	Binding of serum 2 to looped/cyclic peptides of protein N of SARS-CoV Urbani [1]	Binding of serum 6 to linear peptides of protein N of SARS-CoV Urbani [1]	Binding of serum 6 to looped/cyclic peptides of protein N of SARS-CoV Urbani [1]	Binding of serum 37 to linear peptides of protein N of SARS-CoV Urbani [1]	Binding of serum 37 to looped/cyclic peptides of protein N of SARS-CoV Urbani [1]	Binding of serum 62 to linear peptides of protein N of SARS-CoV Urbani [1]	Binding of serum 62 to looped/cyclic peptides of protein N of SARS-CoV Urbani [1]	Binding of serum London to linear peptides of protein N of SARS-CoV Urbani [1]	Binding of serum London to looped/cyclic peptides of protein N of SARS-CoV Urbani [1]	Binding of serum SARS-green to linear peptides of protein N of SARS-CoV Urbani [1]	Binding of serum SARS-green to looped/cyclic peptides of protein N of SARS-CoV Urbani [1]	Binding of serum SARS-yellow to linear peptides of protein N of SARS-CoV Urbani [1]	Binding of serum SARS-yellow to looped/cyclic peptides of protein N of SARS-CoV Urbani [1]	Binding of Control Serum Blood-Bank to Looped peptides [2]	Binding of Control serum Blood-bank to linear peptides [2]	also measured
YLGTGPEASLPYGAN	0.2	0.4	0.1	0.3	0.2	0.4	0.2	0.2	0.7	0.8	0.6	0.7	0.5	0.5	0.3	0.6	0.6	0.6	0.7	0.6	Binding of Control serum LUMC to linear peptides [2]: 0.8; Binding of Control serum LUMC to looped peptides [2]: 0.7; Binding of a rabbit serum to linear peptides of protein N of SARS-CoV Urbani (Rabbit serum linear peptides) [3]: 0.1; Binding of a rabbit serum to looped/cyclic peptides of protein N of SARS-CoV Urbani (Rabbit serum looped peptides) [3]: 0.6; Binding of antibody 03-018 to linear peptides of the N protein of SARS-CoV Urbani [4]: 0.1; Binding of antibody 03-018 to looped/cyclic peptides of the N protein of SARS-CoV Urbani [4]: 0.2
YYLGTGPEASLPYGA	0.3	0.4	0.2	0.4	0.2	0.4	0.2	0.3	0.7	0.9	0.7	0.7	0.4	0.5	0.2	0.5	0.8	0.7	0.8	0.7	Binding of Control serum LUMC to linear peptides [2]: 0.7; Binding of Control serum LUMC to looped peptides [2]: 0.8; Binding of a rabbit serum to linear peptides of protein N of SARS-CoV Urbani (Rabbit serum linear peptides) [3]: 0.1; Binding of a rabbit serum to looped/cyclic peptides of protein N of SARS-CoV Urbani (Rabbit serum looped peptides) [3]: 0.5; Binding of antibody 03-018 to linear peptides of the N protein of SARS-CoV Urbani [4]: 0.1; Binding of antibody 03-018 to looped/cyclic peptides of the N protein of SARS-CoV Urbani [4]: 0.2
YYRRATRRVRGGDGK	0.3	0.2	0.1	0.1	0.3	0.2	0.3	0.1	0.7	0.4	0.6	0.2	0.5	0.2	0.3	0.0	0.5	0.1	0.3	0.6	Binding of Control serum LUMC to linear peptides [2]: 0.6; Binding of Control serum LUMC to looped peptides [2]: 0.2; Binding of a rabbit serum to linear peptides of protein N of SARS-CoV Urbani (Rabbit serum linear peptides) [3]: 0.2; Binding of a rabbit serum to looped/cyclic peptides of protein N of SARS-CoV Urbani (Rabbit serum looped peptides) [3]: 0.0; Binding of antibody 03-018 to linear peptides of the N protein of SARS-CoV Urbani [4]: 0.1; Binding of antibody 03-018 to looped/cyclic peptides of the N protein of SARS-CoV Urbani [4]: 0.2
B1																					OD492nm [5]: 0.495 OD492nm
